Data: patent US11780839B2, “Compounds for treating Huntington's disease” (PTC THERAPEUTICS, INC., priority 2018, dated 2023)

System: Endogenous Huntingtin Protein
Assay: Endogenous Huntingtin Protein Assay (ELISA-based Meso Scale Discovery electrochemiluminescence)
Assay type: cell-based
Details: MSD electrochemiluminescence, Table 1
Outline: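 Sandwich MSD electrochemiluminescence immunoassay. Capture used MW1 (expanded polyglutamine) or MAB2166 antibody coated at 1 μg/mL overnight at 4 °C. Samples were bound overnight at 4 °C, then a rabbit monoclonal detection antibody and SULFO-TAG anti-rabbit, each at 0.25 μg/mL, were applied for 1 h at room temperature.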

SMILES | IC50 [nM]
Cc1nc2c(C)cc(-c3ccc(-c4cnc(N(C)C5CC(C)(C)NC(C)(C)C5)nn4)c(O)c3)nc2o1 [Cpd 169, 5-(2,7-dimethyl[1,3]oxazolo[5,4-b]pyridin-5-yl)-2-{3-[methyl(2,2,6,6-tetramethylpiperidin-4-yl)amino]-1,2,4-triazin-6-yl}phenol] | ≤ 100
CCC(C)(CC)NC1CCN(c2ncc(-c3ccc(-c4cn[nH]c4)cc3O)nn2)C1 (stereo not drawn) [Cpd 170, 2-(3-{3-[(3-methylpentan-3-yl)amino]pyrrolidin-1-yl}-1,2,4-triazin-6-yl)-5-(1H-pyrazol-4-yl)phenol] | ≤ 100
CC1CC(NC(C)(C)C)CN1c1ncc(-c2ccc(-c3cn[nH]c3)cc2O)nn1 (stereo not drawn) [Cpd 171, 2-{3-[4-(tert-butylamino)-2-methylpyrrolidin-1-yl]-1,2,4-triazin-6-yl}-5-(1H-pyrazol-4-yl)phenol] | ≤ 100
CN(c1ncc(-c2ccc(-n3ncc(CO)n3)cc2O)nn1)C1CC(C)(C)NC(C)(C)C1 [Cpd 172, 5-[4-(hydroxymethyl)-2H-1,2,3-triazol-2-yl]-2-{3-[methyl(2,2,6,6-tetramethylpiperidin-4-yl)amino]-1,2,4-triazin-6-yl}phenol] | ≤ 100
CN(c1ncc(-c2ccc(-c3ccc4nnn(C)c4n3)cc2O)nn1)C1CC(C)(C)NC(C)(C)C1 [Cpd 173] | ≤ 100
CC(C)(C)NC1CCN(c2ncc(-c3ccc(-c4c[nH]nc4F)cc3O)nn2)C1 (stereo not drawn) [Cpd 174, 2-{3-[3-(tert-butylamino)pyrrolidin-1-yl]-1,2,4-triazin-6-yl}-5-(3-fluoro-1H-pyrazol-4-yl)phenol] | ≤ 100
Cn1ccc(-c2ccc(-c3cnc(N4CCC(NC(C)(C)C)C4)nn3)c(O)c2)n1 (stereo not drawn) [Cpd 175, 2-{3-[3-(tert-butylamino)pyrrolidin-1-yl]-1,2,4-triazin-6-yl}-5-(1-methyl-1H-pyrazol-3-yl)phenol] | 1000 to 3000
CN(c1ncc(-c2ccc(-c3cnc4c(cnn4C)c3)cc2O)nn1)C1CC(C)(C)NC(C)(C)C1 [Cpd 176, 5-(1-methyl-1H-pyrazolo[3,4-b]pyridin-5-yl)-2-{3-[methyl(2,2,6,6-tetramethylpiperidin-4-yl)amino]-1,2,4-triazin-6-yl}phenol] | ≤ 100
CN(c1ncc(-c2ccc(-c3ccc4c(cnn4C)c3)cc2O)nn1)C1CC(C)(C)NC(C)(C)C1 [Cpd 177, 5-(1-methyl-1H-indazol-5-yl)-2-{3-[methyl(2,2,6,6-tetramethylpiperidin-4-yl)amino]-1,2,4-triazin-6-yl}phenol] | ≤ 100
CN(c1ncc(-c2ccc(-c3ccc4nnnn4n3)cc2O)nn1)C1CC(C)(C)NC(C)(C)C1 [Cpd 178, 2-{3-[methyl(2,2,6,6-tetramethylpiperidin-4-yl)amino]-1,2,4-triazin-6-yl}-5-(tetrazolo[1,5-b]pyridazin-6-yl)phenol] | ≤ 100
CN(c1ncc(-c2ccc(-c3cc(CO)ncn3)cc2O)nn1)C1CC(C)(C)NC(C)(C)C1 [Cpd 179, 5-[6-(hydroxymethyl)pyrimidin-4-yl]-2-{3-[methyl(2,2,6,6-tetramethylpiperidin-4-yl)amino]-1,2,4-triazin-6-yl}phenol] | ≤ 100
Oc1cc(-c2cn[nH]c2)ccc1-c1cnc(N2CCC3(CCCNC3)CC2)nn1 [Cpd 180, 2-[3-(2,9-diazaspiro[5.5]undecan-9-yl)-1,2,4-triazin-6-yl]-5-(1H-pyrazol-4-yl)phenol] | 1000 to 3000
CN(c1ncc(-c2ccc(-c3cc4cn[nH]c4cn3)cc2O)nn1)C1CC(C)(C)NC(C)(C)C1 [Cpd 184, 2-{3-[methyl(2,2,6,6-tetramethylpiperidin-4-yl)amino]-1,2,4-triazin-6-yl}-5-(1H-pyrazolo[3,4-c]pyridin-5-yl)phenol] | ≤ 100
CN(c1ncc(-c2ccc(-c3ccc4ncccc4c3)cc2O)nn1)C1CC(C)(C)NC(C)(C)C1 [Cpd 185, 2-{3-[methyl(2,2,6,6-tetramethylpiperidin-4-yl)amino]-1,2,4-triazin-6-yl}-5-(quinolin-6-yl)phenol] | ≤ 100
CN(c1ncc(-c2ccc(-c3ccc4c(nnn4C)n3)cc2O)nn1)C1CC(C)(C)NC(C)(C)C1 [Cpd 186, 2-{3-[methyl(2,2,6,6-tetramethylpiperidin-4-yl)amino]-1,2,4-triazin-6-yl}-5-(1-methyl-1H-[1,2,3]triazolo[4,5-b]pyridin-5-yl)phenol] | ≤ 100
CN(c1ncc(-c2ccc(-c3ccc4c(c3)OCO4)cc2O)nn1)C1CC(C)(C)NC(C)(C)C1 [Cpd 188, 5-(2H-1,3-benzodioxo1-5-yl)-2-{3-[methyl(2,2,6,6-tetramethylpiperidin-4-yl)amino]-1,2,4-triazin-6-yl}phenol] | ≤ 100
CN(c1ncc(-c2ccc(-c3cnc4[nH]ncc4n3)cc2O)nn1)C1CC(C)(C)NC(C)(C)C1 [Cpd 194, 2-{3-[methyl(2,2,6,6-tetramethylpiperidin-4-yl)amino]-1,2,4-triazin-6-yl}-5-(1H-pyrazolo[3,4-b]pyrazin-5-yl)phenol] | ≤ 100
CN(c1ncc(-c2ccc(-c3ncc4[nH]ncc4n3)cc2O)nn1)C1CC(C)(C)NC(C)(C)C1 [Cpd 195, 2-{3-[methyl(2,2,6,6-tetramethylpiperidin-4-yl)amino]-1,2,4-triazin-6-yl}-5-(1H-pyrazolo[4,3-d]pyrimidin-5-yl)phenol] | ≤ 100
CN(c1cnc(-c2ccc(-c3cnn(C)c3)cc2O)nn1)C1CC(C)(C)NC(C)(C)C1 [Cpd 196, 5-(1-methyl-1H-pyrazol-4-yl)-2-{6-[methyl(2,2,6,6-tetramethylpiperidin-4-yl)amino]-1,2,4-triazin-3-yl}phenol] | ≤ 100
CN(c1ncc(-c2ccc(-c3ccc4c(cnn4C)n3)cc2O)nn1)C1CC(C)(C)NC(C)(C)C1 [Cpd 198, 5-(1-methyl-1H-pyrazolo[4,3-b]pyridin-5-yl)-2-{3-[methyl(2,2,6,6-tetramethylpiperidin-4-yl)amino]-1,2,4-triazin-6-yl}phenol] | ≤ 100
CN(c1ncc(-c2ccc(-c3ccc4c(c3)nnn4C)cc2O)nn1)C1CC(C)(C)NC(C)(C)C1 [Cpd 200, 5-(1-methyl-1H-benzotriazol-5-yl)-2-{3-[methyl(2,2,6,6-tetramethylpiperidin-4-yl)amino]-1,2,4-triazin-6-yl}phenol] | ≤ 100

Continued, values first:

IC50 [nM] | SMILES
> 500 | Oc1cc(-c2cn[nH]c2)ccc1-c1cnc(N2CCC3(CCNC3)CC2)nn1 [Cpd 181, 2-[3-(2,8-diazaspiro[4.5]decan-8-yl)-1,2,4-triazin-6-yl]-5-(1H-pyrazol-4-yl)phenol]
> 500 | CN1CCCC2(CCN(c3ncc(-c4ccc(-c5cn[nH]c5)cc4O)nn3)CC2)C1 [Cpd 182, 2-[3-(2-methyl-2,9-diazaspiro[5.5]undecan-9-yl)-1,2,4-triazin-6-yl]-5-(1H-pyrazol-4-yl)phenol]
100 to 500 | CN1CCC2(CCN(c3ncc(-c4ccc(-c5cn[nH]c5)cc4O)nn3)CC2)C1 [Cpd 183]
100 to 500 | CC(C)(C)NC1CCN(c2ncc(-c3ccc(-n4ccnc4)cc3O)nn2)C1 (stereo not drawn) [Cpd 187, 2-{3-[3-(tert-butylamino)pyrrolidin-l-yl]-1,2,4-triazin-6-yl}-5-(1H-imidazol-1-yl)phenol]
≤ 100 | CC1(C)C[C@@H](Nc2ncc(-c3ccc(-c4c[nH]nc4F)cc3O)nn2)[C@@H](F)C(C)(C)N1 [Cpd 189, 5-(3-fluoro-1H-pyrazol-4-yl)-2-(3-{[(3R,4R)-3-fluoro-2,2,6,6-tetramethylpiperidin-4-yl]amino}-1,2,4-triazin-6-yl)phenol]
1000 to 3000 | CC(C)(C)N[C@@H]1CC[C@@H]2CN(c3ncc(-c4ccc(-c5cn[nH]c5)cc4O)nn3)C[C@@H]21 [Cpd 193, 2-{3-[(3aR,4R,6aS)-4-(tert-butylamino)hexahydrocyclopenta[c]pyrrol-2(1H)-yl]-1,2,4-triazin-6-yl}-5-(1H-pyrazol-4-yl)phenol]
100 to 500 | Cc1cn(-c2ccc(-c3cnc(N4CCC(NC(C)(C)C)C4)nn3)c(O)c2)cn1 (stereo not drawn) [Cpd 197, 2-{3-[3-(tert-butylamino)pyrrolidin-l-yl]-1,2,4-triazin-6-yl}-5-(4-methyl-1H-imidazol-1-yl)phenol]
≤ 100 | Cn1cc(-c2ccc(-c3cnc(NC4CC(C)(C)NC(C)(C)C4)nn3)c(O)c2)cn1 [Cpd 199, 5-(1-methyl-1H-pyrazol-4-yl)-2-{3-[(2,2,6,6-tetramethylpiperidin-4-yl)amino]-1,2,4-triazin-6-yl}phenol]
≤ 100 | Cn1cc(-c2ccc(-c3cnc(N[C@H]4CC(C)(C)NC(C)(C)[C@H]4F)nn3)c(O)c2)cn1 [Cpd 201, 2-(3-{[(3S,4S)-3-fluoro-2,2,6,6-tetramethylpiperidin-4-yl]amino}-1,2,4-triazin-6-yl)-5-(1-methyl-1H-pyrazol-4-yl)phenol]
≤ 100 | Cn1cc(-c2ccc(-c3cnc(N4CCC(NC(C)(C)C)C4)nn3)c(O)c2)cn1 (stereo not drawn) [Cpd 202, 2-{3-[3-(tert-butylamino)pyrrolidin-l-yl]-1,2,4-triazin-6-yl}-5-(1-methyl-1H-pyrazol-4-yl)phenol]
≤ 100 | CC(C)NC1CCN(c2ncc(-c3ccc(-c4cnn(C)c4)cc3O)nn2)C1 (stereo not drawn) [Cpd 203]
≤ 100 | CC(C)(C)NC1CCN(c2ncc(-c3ccc(-n4nccn4)cc3O)nn2)C1 (stereo not drawn) [Cpd 204, 2-{3-[3-(tert-butylamino)pyrrolidin-l-yl]-1,2,4-triazin-6-yl}-5-(2H-1,2,3-triazol-2-yl)phenol]
≤ 100 | CNC1CCN(c2ncc(-c3ccc(-c4cnn(C)c4)cc3O)nn2)C1 (stereo not drawn) [Cpd 205, 2-{3-[3-(methylamino)pyrrolidin-l-yl]-1,2,4-triazin-6-yl}-5-(1-methyl-1H-pyrazol-4-yl)phenol]
1000 to 3000 | CC(C)(C)NC1CCN(c2ncc(-c3ccc(-c4cn[nH]c4)cc3O)nn2)CC1 [Cpd 206, 2-{3-[4-(tert-butylamino)piperidin-l-yl]-1,2,4-triazin-6-yl}-5-(1H-pyrazol-4-yl)phenol]
1000 to 3000 | CC(C)(C)NC1CCN(c2ncc(-c3ccc(-c4ccn5nncc5c4)cc3O)nn2)C1 (stereo not drawn) [Cpd 207, 2-{3-[3-(tert-butylamino)pyrrolidin-l-yl]-1,2,4-triazin-6-yl}-5-([1,2,3]triazolo[1,5-a]pyridin-5-yl)phenol]
